In patent US6864217B2, “Herbicidal compositions with substituted phenylsulfonylureas for controlling weeds in rice” (Hoechst Schering AgrEvo GmbH, priority 1998, dated 2005):

Tests used:
Oryza sativa [1] = test: Table 14 greenhouse trial, treatment at the 3-4 leaf stage: rice damage; assay type: in vivo; conditions: 21 days after application
Method: (§1) Seeds or rhizome pieces of mono- and dicotyledonous weed plants are placed into sandy loam soil in plastic pots, covered with soil and grown in a greenhouse under good growth conditions (temperature, atmospheric humidity, water supply). Weeds which are encountered in the cultivation of rice are cultivated in pots in which the water level is up to 2 cm over the soil surface. Three weeks after sowing, the test plants are treated at the three-leaf stage. The active compound combinations according to the invention, formulated as wettable powders or emulsion concentrates, and, in parallel experiments, the correspondingly formulated individual active compounds are sprayed onto the green parts of the plants at different dosages using an amount of water of 300 to 600 l/ha (converted), and, after about 3 to 4 weeks of the test plants in the greenhouse under optimum growth conditions (temperature, atmospheric humidity, water supply), the effect of the preparations is evaluated visually in comparison to untreated controls. In the case of rice or weeds which are encountered in the cultivation of rice, the active compounds are also added directly to the water for irrigation (application analogous to the so-called granules application) or sprayed onto plants and added to the water for irrigation. The experiments were designed with several, up to five, repetitions. The herbicidal compositions according to the invention also have good herbicidal post-emergence activity against a broad spectrum of economically important weed grasses and broad-leaved weeds.
(§2) Greenhouse trial: Treatment at the 3-4 leaf stage, evaluation 21 days after the application.

Sagittaria pygmaea [2] = test: Table 14 greenhouse trial, treatment at the 3-4 leaf stage: weed control; assay type: in vivo; conditions: 21 days after application
Method: as §1, §2

Sagittaria pygmaea [3] = test: Table 13 greenhouse trial, treatment at the 5-6 leaf stage: weed control; assay type: in vivo; conditions: 20 days after application
Method: as §1
(§3) Greenhouse trial: Treatment at the 5-6 leaf stage, evaluation 20 days after the application.

Oryza sativa [4] = test: Table 13 greenhouse trial, treatment at the 5-6 leaf stage: rice damage; assay type: in vivo; conditions: 20 days after application
Method: as §1, §3

Echinochloa crusgalli [5] = test: Table 5 field trial, treatment at the 2-4 leaf stage rice: weed control; assay type: in vivo; conditions: evaluation after 28 days
Method: (§7) The examples mentioned below were carried out in the greenhouse, and in some instances, in field trials.

Oryza sativa [6] = test: Table 5 field trial, treatment at the 2-4 leaf stage rice: rice damage; assay type: in vivo; conditions: evaluation after 28 days
Method: as §7

Echinochloa crusgalli [7] = test: Table 18 field trial, treatment at the 1-2 leaf stage: weed control; assay type: in vivo; conditions: 30 g of ai/ha, 14 days after application
Text: (§4) Field trial: Treatment at the 1-2 leaf stage, evaluation 14 days after the application.

Oryza sativa [8] = test: Table 18 field trial, treatment at the 1-2 leaf stage: rice damage; assay type: in vivo; conditions: 30 g of ai/ha, 14 days after application
Text: as §4

Echinochloa crusgalli [9] = test: Table 4 field trial: weed control; assay type: in vivo
Method: as §7

Oryza sativa [10] = test: Table 4 field trial: rice damage
Method: as §7

Oryza sativa [11] = test: Table 23 field trial, treatment: 4-6 leaf stage: rice damage; assay type: in vivo; conditions: 36 days after application
Text: (§5) Field trial: Treatment: 4-6 leaf stage, evaluation 36 days after the application.

Cyperus iria = test: Table 23 field trial, treatment: 4-6 leaf stage: weed control; assay type: in vivo; conditions: 36 days after application
Text: as §5

Oryza sativa [12] = test: Table 9 greenhouse trial, treatment at the 1-2 leaf stage: rice damage; assay type: in vivo; conditions: 22 days after application
Method: as §1
(§6) Greenhouse trial: Treatment at the 1-2 leaf stage, evaluation 22 days after the application.

Echinochloa crusgalli [13] = test: Table 9 greenhouse trial, treatment at the 1-2 leaf stage: weed control; assay type: in vivo; conditions: 22 days after application
Method: as §1, §6

Work on `CCCOCCN(C(=O)CCl)c1c(CC)cccc1CC` [B4), 2-chloro-N-(2,6-diethylphenyl)-N-(2-propoxyethyl)acetamide] yielded an ORYSW % damage (Oryza sativa [1]; 125 g of ai/ha) of 15%, an ORYSW % damage (Oryza sativa [1]; 250 g of ai/ha) of 15% and an ORYSW % damage (Oryza sativa [1]; 500 g of ai/ha) of 35%. It also gave an SAGPY % control (Sagittaria pygmaea [2]; 125 g of ai/ha) of 65%, an SAGPY % control (Sagittaria pygmaea [2]; 250 g of ai/ha) of 70% and an SAGPY % control (Sagittaria pygmaea [2]; 500 g of ai/ha) of 75%.

For `O=C(O)c1c(Cl)ccc2cc(Cl)cnc12` [B13), 3,7-dichloro-8-quinolincarboxylic acid], the ORYSW % damage (Oryza sativa [1]; 250 g of ai/ha) was 0%, the ORYSW % damage (Oryza sativa [1]; 500 g of ai/ha) was 0% and the ORYSW % damage (Oryza sativa [1]; 1000 g of ai/ha) was 0%. For the same compound, the SAGPY % control (Sagittaria pygmaea [2]; 250 g of ai/ha) was 30%, the SAGPY % control (Sagittaria pygmaea [2]; 500 g of ai/ha) was 30% and the SAGPY % control (Sagittaria pygmaea [2]; 1000 g of ai/ha) was 30%.

Compound `CCN(C(=O)n1nnn(-c2ccccc2Cl)c1=O)C1CCCCC1` [B17), 4-(2-chlorophenyl)-5-oxo-4,5-dihydro-tetrazole-1-carboxylic acid cyclohexyl-ethyl-amide] has an SAGPY % control (Sagittaria pygmaea [3]; 50 g of ai/ha) of 0%, an SAGPY % control (Sagittaria pygmaea [3]; 100 g of ai/ha) of 40% and an SAGPY % control (Sagittaria pygmaea [3]; 200 g of ai/ha) of 80%. It also gave an ORYSW % damage (Oryza sativa [4]; 50 g of ai/ha) of 0%, an ORYSW % damage (Oryza sativa [4]; 100 g of ai/ha) of 0% and an ORYSW % damage (Oryza sativa [4]; 200 g of ai/ha) of 0%.

`COP(=S)(OC)SCC(=O)N(c1ccc(Cl)cc1)C(C)C` [B19), S-[2-[(4-chlorophenyl)(1-methylethyl)amino]-2-oxo-ethyl]O,O-dimethylphosphorodithioate] was tested, and the ECHCG % control (Echinochloa crusgalli [5]; 250 g of ai/ha) was 30%, the ECHCG % control (Echinochloa crusgalli [5]; 500 g of ai/ha) was 40% and the ORYSW % damage (Oryza sativa [6]; 250 g of ai/ha) was 2%. The ORYSW % damage (Oryza sativa [6]; 500 g of ai/ha) was 10%.

Compound `C[C@@H](Oc1ccc(Oc2nc3ccc(Cl)cc3o2)cc1)C(=O)O` [B20), (R)-2-[4-(6-chloro-1,3-benzoxazol-2-yloxy)phenoxy]-propionic acid] has an ECHCG % control (Echinochloa crusgalli [7]) of 75%, an ORYSW % damage (Oryza sativa [8]) of 0% and an ECHCG % control (Echinochloa crusgalli [9]; 10 g of ai/ha) of 0%. For the same compound, the ECHCG % control (Echinochloa crusgalli [9]; 20 g of ai/ha) was 0%, the ORYSW % damage (Oryza sativa [10]; 10 g of ai/ha) was 0% and the ORYSW % damage (Oryza sativa [10]; 20 g of ai/ha) was 0%.

`CC(C)N1C(=O)c2ccccc2NS1(=O)=O` [B39), 3-isopropyl-1H-2,1,3-benzothiadiazin-4(3H)-one-2,2-dioxide] showed an ORYSW % damage (Oryza sativa [11]; 250 g of ai/ha) of 0%, an ORYSW % damage (Oryza sativa [11]; 400 g of ai/ha) of 0% and an ORYSW % damage (Oryza sativa [11]; 800 g of ai/ha) of 3%. It also gave a CYPIR % control (Cyperus iria; 250 g of ai/ha) of 42%, a CYPIR % control (Cyperus iria; 400 g of ai/ha) of 78% and a CYPIR % control (Cyperus iria; 800 g of ai/ha) of 97%.

`COc1cc(OC)nc(Oc2cccc(Oc3nc(OC)cc(OC)n3)c2C(=O)O)n1` [B48), sodium 2,6-bis[(4,6-dimethoxypyrimidin-2-yl)oxy]-benzoate] showed an ORYSW % damage (Oryza sativa [12]; 19 g of ai/ha) of 0%, an ORYSW % damage (Oryza sativa [12]; 38 g of ai/ha) of 0% and an ORYSW % damage (Oryza sativa [12]; 75 g of ai/ha) of 5%. The ECHCG % control (Echinochloa crusgalli [13]; 19 g of ai/ha) was 15%, the ECHCG % control (Echinochloa crusgalli [13]; 38 g of ai/ha) was 30% and the ECHCG % control (Echinochloa crusgalli [13]; 75 g of ai/ha) was 40%.
